Ends that are not written are not given here.

In general, IC50 refers to the concentration at which inhibition is half-maximal.

For data set [1], the system named is Listeria innocua MC2 KCTC 3658, Staphylococcus aureus ATCC 6538, Pseudomonas aeruginosa ATCC 27853, Salmonella ATCC 19430, Escherichia coli KCTC 1682. Put plainly: Minimal inhibitory concentration, standard broth microdilution method. It counts as cell-based. The note with it: five strains, 37° C., 12 hours. As to the method: An antimicrobial assay was performed by measuring a minimal inhibitory concentration (MIC) value using a standard broth microdilution method. The antimicrobial activity of each of the peptides was measured using two gram-positive bacteria (Listeria innocua MC2 KCTC 3658 and Staphylococcus aureus ATCC 6538) and three gram-negative bacteria (Pseudomonas aeruginosa ATCC 27853, Salmonella ATCC 19430, and Escherichia coli KCTC 1682). 50 μl of each of the five bacterial strains were prepared, mixed with 5 ml of 3.7% BHI, and then cultured overnight under conditions of 37° C. and 240 rpm. Thereafter, 50 μl of each of the cultured bacterial strains was mixed with 5 ml of 3.7% BHI, and cultured for 2 hours under conditions of 37° C. and 240 rpm. Each of the cultured bacterial strains was diluted with a 0.037% BHI solution to a concentration of 1×10^8 CFU/ml.
A dissolved synthetic peptide was diluted twofold, stepwise, with BHIB in a 96 well-plate. […] After the incubation, a change in optical density at 600 nm was measured using Microplate Reader Multiskan FC (Thermo Scientific, Waltham, Mass., USA), and a range of the MIC was set as the lowest concentration of a peptide in which the growth of bacteria starts to be inhibited. […]

The nature of data set [2]: in vitro. It counts as cell-based. As to the method: (§1) A cytotoxicity experiment was performed by a test method using a Cyto X™ cell viability assay kit (LPS SOLUTION). A 96-well cell culture plate was purchased from Corning, and mammalian cell lines were purchased from the American Type Culture Collection (ATCC). Also, the CytoX™ cell viability assay kit was purchased from LPS SOLUTION.
(§2) As an experimental method, stored frozen cells were thawed, cultured in a DMEM or RP 11640 medium supplemented with 10% FBS, and then sub-cultured at intervals of 2 to 3 days until a density of the cells reached 80 to 90%. For this experiment, the cells were detached by treating the cells with trypsin-EDTA, and then divided into wells of a 96-well plate so that the number of the cells amounted to 10,000 cells. Thereafter, the cells were cultured at 37° C. for 24 hours in a CO2 incubator. Each of the prepared peptides was diluted with DMSO to concentrations of 10, 1, 0.1, 0.01, and 0.001 mM, and then diluted at 1:100 by adding 1 μl of DMSO or each of the prepared peptides to each well. Then, the cells were cultured at 37° C. for 24 hours in a CO2 incubator. To measure cytotoxicity, 10 μl of each of the peptides prepared using the Cyto X™ cell viability assay kit (LPS SOLUTION) was added to each well. The cells were cultured at 37° C. for 1 to 4 hours in a CO2 incubator, and an optical density was measured at 450 nm using a microplate reader. Then, the measured optical density was calculated as a percentage of a value measured for DMSO, and a graph was plotted using GraphPad Prism 5. Then, an IC50 value was calculated. When each of the IC50 values of the four peptides in each cell line was greater than or equal to 10 μM, the peptides were judged to have no general cytotoxicity.

Another data set relates to CHO-K1 cell line. The data set is described as follows: in vitro. It counts as cell-based. As to the method: as §1, §2
Data set [3] is described as follows: in vitro. To be noted: mouse. The data set is classed as cell-based. As to the method: as §1, §2
For data set [4] the following is noted: at a concentration of 200 μM or less; cited from earlier work.
The subject of data set [5] is gram-positive and gram-negative bacteria. To be noted: cited from earlier work.

Turning to “H-NKVKEWIKYLKSLFK-OH [YK5, NKVKE WIKYL KSLFK]”, in data set [1], the “antibacterial activity (MIC experiment, FIG. 2)” value is on record as “effective antibacterial activity against the five strains when used at a low concentration”. Besides, the concentration for half-maximal inhibition (IC50) at 24 h in “in vitro [2]” (African green monkey) is more than 100 µM; in the data set “in vitro [2]” (Chinese hamster), 57 µM; in the data set “in vitro [2]” (human), more than 100 µM; in “in vitro [2]” (mouse), more than 100 µM; in the data set “in vitro [3]” it was more than 100 µM. For the same substance, in the data set on CHO-K1 cell line, the “cytotoxicity compared with YK3” value is recorded as “lower cytotoxicity than the YK3 peptide”.
Consider “NKVKEWIKYLKSKFK [YK8, NKVKE WIKYL KSKFK]”, for which the IC50 at 24 h was more than 100 µM in the data set “in vitro [2]” (African green monkey); 71.9 µM in the data set “in vitro [2]” (Chinese hamster); more than 100 µM in “in vitro [2]” (human); more than 100 µM in the data set “in vitro [2]” (mouse); more than 100 µM in the data set “in vitro [3]”. Besides, in the data set on CHO-K1 cell line, the “cytotoxicity compared with YK3” value is given as “lower cytotoxicity than the YK3 peptide”.
Turning to “NKVKEWIKYLKSLFS [YK3, NKVKE WIKYL KSLFS]”, the figures for the IC50 at 24 h in the data set “in vitro [2]” (African green monkey), in “in vitro [2]” (Chinese hamster) and in “in vitro [2]” (human) were 99.1 µM, 56.2 µM and 94 µM, respectively.
As for NKVKEWWKWLKKL [YK11, NKVKE WWKWL KKL], the half-inhibitory concentration (IC50) at 24 h in “in vitro [2]” (African green monkey) is 83.7 µM; in the data set “in vitro [2]” (Chinese hamster) it was 86.8 µM; in “in vitro [2]” (human), more than 100 µM; in “in vitro [2]” (mouse), more than 100 µM; in “in vitro [3]” it was 96.6 µM. In the data set on CHO-K1 cell line, the “cytotoxicity compared with YK3” value is recorded as “lower cytotoxicity than the YK3 peptide”.
For the substance “NTVKETIKYLKSLFSHAFEVVKT (NTVKETIKYLKSLFSHAFEVVKT; LPcin-1 (23mer)) [LPcin-I, wild-type lactophoricin from cow milk, 23 amino acid residues, carboxyl terminal 113 to 135 region of PP3]”, the hemolytic action result in data set [4] is listed as “does not have a hemolytic action”. In addition, the “growth inhibition / antimicrobial functionality” value in data set [5] was “inhibits the growth of both gram-positive and gram-negative bacteria”.

These data come from US10150795B2, “Peptide having antimicrobial activity against pathogens and antimicrobial peptide composition comprising the same” (Hankuk University of Foreign Studies Research & Business …, priority 2016, dated 2018).
